Assay results published in patent US9708368B2, “Linear peptide antibiotics” (priority 2012, dated 2017).
In brackets after ≈: the same amount, converted by molar mass. Numbered stars: 1 amine (or outer) side, 2 acyl side, 3 side chain; on linkers, the order of the positions; unused ones are H or OH. Square brackets hold non-standard residues; d marks the D form. Peptide text beside a SMILES is read from it. * marks the point of attachment. ξ: configuration not given here. boroAla((+)-pinanediol) = C[C@H](N*)B1O[C@@H]2C[C@@H]3C[C@@H](C3(C)C)[C@]2(C)O1; Biphenylcarbonyl(4'-Bu) = CCCCc1ccc(-c2ccc(C(=O)*)cc2)cc1; X1 = C[C@H](N*)B1OC2C[C@@H]3C[C@@H](C3(C)C)[C@]2(C)O1; ξ3Amino2oxobutanoyl = CC(N[*:1])C(=O)C(=O)[*:2]; Benzoyl(4-octyl) = CCCCCCCCc1ccc(C(=O)*)cc1; X16 = CC(C)(C)c1ccc(-c2ccc(C(=O)*)cc2)cc1; X17 = O=C(/C=C/C=C/C12CC3CC(CC(C3)C1)C2)*; X15 = CCCCCCN1CCC(c2ccc(C(=O)*)cc2)CC1; X4 = CCCCc1ccc(-c2c[nH]c(C(=O)*)c2)cc1; X13 = CCCCN1CCC(c2ccc(C(=O)*)cc2)CC1; X19 = O=C(CCCCC12CC3CC(CC(C3)C1)C2)*; X21 = CCCCc1ccc(-c2ncc(C(=O)*)s2)cc1; X6 = C[C@@H](N*)C(=O)C(N)=O; X8 = C[C@H](N*)C(=O)C(N)=O; 4Amb = NCc1ccc(C(=O)O)cc1; Dab = NCC[C@H](N)C(=O)O; Dap = NC[C@H](N)C(=O)O; X14 = CCCCc1ccc(*)cc1; ξK = NCCCCC(N)C(=O)O; βAla = NCCC(=O)O

Assays:
[1] = target: S. aureus SPase (Staphylococcus aureus, UniProt P0A070); experiment: biochemical
[2] = target: E. coli SPase (Escherichia coli, UniProt P00803); experiment: Biochemical SPase activity assay (fluorogenic peptide substrate), E. coli enzyme
Protocol: Reactions were initiated by the addition of substrate to a final concentration of 20 μM. Reaction progress was monitored by measuring the increase in fluorescence signal (excitation at 314 nm, emission at 416 nm) using a SpectraMax M2 fluorescence microplate reader. […] Three-folder serial dilutions of test compounds, starting at 10 μM, were prepared in enzyme mix solution and incubated at room temperature for 10 minutes. Following this incubation, fluorogenic substrate was added to a final concentration of 20 μM and the increase in fluorescence, corresponding to substrate cleavage, was monitored continuously at room temperature for 1 hour. Initial reaction rates were calculated based on the rate of increase in fluorescence during the reaction. Reaction rates were plotted as a function of compound concentration, and IC50 values are determined nonlinear regression analysis (SoftMaxPro 5.4, Molecular Devices™) of the sigmoidal dose-response curve.

[3] = test system: Escherichia coli strain MC4100 IMP-4213, which harbors an LptD mutation; details: Method B; E. coli MC4100 IMP-4213 (LptD mutation); 35° C., 22 hours
Procedure, shortened: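 Two-fold serial dilutions of compound inoculated at final OD600 0.0005, incubated static at 35 °C for 22 h, and growth read visually.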

[4] = test system: methicillin resistant Staphylococcus aureus (MRSA) strain USA300 (NRS384); details: Method B, 35° C., 22 hours
Protocol: In vitro antimicrobial activity of each compound was determined by measuring minimal inhibitor concentrations (MICs) using the broth micro-dilution technique as approved by the Clinical and Laboratory Standards Institute (CLSI). […] Bacterial inocula were prepared by scraping cells into 1 mL of testing media (cation adjusted Mueller Hinton Broth supplemented with 0.002% v/v Tween-80) and diluting to a final OD600 nm of 0.01.
Test compounds were prepared in DMSO at a concentration of 10 mg/ml. […] Bacterial inocula were added to the two fold serial dilutions of test compounds to a final density of OD OD600 nm of 0.0005 and incubated stationarily at 35° C. for 22 hours, after which the plates were examined visually.

Sequence of E. coli SPase (P00803 whole entry): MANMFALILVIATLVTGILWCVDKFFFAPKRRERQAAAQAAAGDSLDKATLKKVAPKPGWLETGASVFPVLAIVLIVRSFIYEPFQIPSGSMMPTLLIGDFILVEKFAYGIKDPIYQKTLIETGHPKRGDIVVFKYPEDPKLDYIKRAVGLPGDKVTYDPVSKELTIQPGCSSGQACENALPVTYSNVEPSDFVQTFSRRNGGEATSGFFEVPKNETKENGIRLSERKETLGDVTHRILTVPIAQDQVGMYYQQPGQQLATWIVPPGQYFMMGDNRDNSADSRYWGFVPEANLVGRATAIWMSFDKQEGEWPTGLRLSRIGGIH
Sequence of S. aureus SPase (P0A070 whole entry): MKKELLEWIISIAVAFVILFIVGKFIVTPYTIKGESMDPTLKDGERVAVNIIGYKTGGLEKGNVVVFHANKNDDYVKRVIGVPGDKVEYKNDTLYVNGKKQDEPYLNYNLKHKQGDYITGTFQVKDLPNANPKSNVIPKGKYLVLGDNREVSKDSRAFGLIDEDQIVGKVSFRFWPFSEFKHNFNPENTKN

Structure (SMILES)	IC50 [1] [nM]	IC50 [2] [nM]	MIC (μg/mL) E. coli [3] [µg/mL]	MIC (μg/mL) S. aureus [4] [µg/mL]
C[C@H](NC(=O)[C@H](CCCCN)NC(=O)[C@H](C)NC(=O)[C@@H](NC(=O)[C@H](CCN)NC(=O)c1ccc(-c2ccc(C(C)(C)C)cc2)cc1)[C@@H](C)O)B1O[C@@H]2C[C@@H]3C[C@@H](C3(C)C)[C@]2(C)O1 [Compound 231] (X16-[Dab]TAK-{boroAla((+)-pinanediol)})	95	4.5	0.5 (≈ 0.581 µM)	0.5 (≈ 0.581 µM)
CCCCCCCCc1ccc(C(=O)N[C@@H](CCN)C(=O)N[C@H](C(=O)N[C@@H](C)C(=O)N[C@@H](CCCCN)C(=O)N[C@@H](C)B2OC3C[C@@H]4C[C@@H](C4(C)C)[C@]3(C)O2)[C@@H](C)O)cc1 (stereo partly drawn) [Compound 232] ({Benzoyl(4-octyl)}-[Dab]TAK-X1)	140	5	0.25 (≈ 0.298 µM)	0.31 (≈ 0.369 µM)
CCCCc1ccc(-c2ccc(C(=O)N[C@@H](CCN)C(=O)N[C@H](C(=O)N[C@@H](C)C(=O)N[C@@H](CCCCN)C(=O)N[C@@H](C)B3OC4C[C@@H]5C[C@@H](C5(C)C)[C@]4(C)O3)[C@@H](C)O)nc2)cc1 (stereo partly drawn) [Compound 233]	220	29	1 (≈ 1.16 µM)	0.5 (≈ 0.581 µM)
CCCCc1ccc(-c2ccc(C(=O)N[C@@H](CCN)C(=O)N[C@H](C(=O)N[C@@H](C)C(=O)N[C@@H](CCCCN)C(=O)N[C@@H](C)B3OC4C[C@@H]5C[C@@H](C5(C)C)[C@]4(C)O3)[C@@H](C)O)cn2)cc1 (stereo partly drawn) [Compound 234]	53	8.3	0.5 (≈ 0.581 µM)	0.4 (≈ 0.465 µM)
C[C@H](NC(=O)[C@H](CCCCN)NC(=O)[C@H](C)NC(=O)[C@@H](NC(=O)[C@H](CCN)NC(=O)c1ccc(-c2ccccc2C(F)(F)F)cc1)[C@@H](C)O)B1OC2C[C@@H]3C[C@@H](C3(C)C)[C@]2(C)O1 (stereo partly drawn) [Compound 236]	130	28	8 (≈ 9.18 µM)	2 (≈ 2.29 µM)
C[C@H](NC(=O)[C@H](CCCCN)NC(=O)[C@H](C)NC(=O)[C@@H](NC(=O)[C@H](CCN)NC(=O)c1ccc(-c2ccc(C(F)(F)F)cc2)cc1)[C@@H](C)O)B1OC2C[C@@H]3C[C@@H](C3(C)C)[C@]2(C)O1 (stereo partly drawn) [Compound 237]	210	16	2 (≈ 2.29 µM)	0.71 (≈ 0.814 µM)
C[C@H](NC(=O)[C@H](CCCCN)NC(=O)[C@H](C)NC(=O)[C@@H](NC(=O)[C@H](CCN)NC(=O)CCCCC12CC3CC(CC(C3)C1)C2)[C@@H](C)O)B1OC2C[C@@H]3C[C@@H](C3(C)C)[C@]2(C)O1 (stereo partly drawn) [Compound 239] (X19-[Dab]TAK-X1)	670	17	2 (≈ 2.38 µM)	0.71 (≈ 0.843 µM)
C[C@H](NC(=O)[C@H](CCCCN)NC(=O)[C@H](C)NC(=O)[C@@H](NC(=O)[C@H](CCN)NC(=O)/C=C/C=C/C12CC3CC(CC(C3)C1)C2)[C@@H](C)O)B1O[C@@H]2C[C@@H]3C[C@@H](C3(C)C)[C@]2(C)O1 [Compound 240] (X17-[Dab]TAK-{boroAla((+)-pinanediol)})	88	28	4 (≈ 4.77 µM)	0.71 (≈ 0.847 µM)
CCCCc1ccc(-c2ccc(C(=O)N[C@@H](CCN)C(=O)N[C@H](C(=O)N[C@@H](C)C(=O)N[C@@H](CCCCN)C(=O)N[C@@H](C)B3OC4C[C@@H]5C[C@@H](C5(C)C)[C@]4(C)O3)[C@@H](C)O)c(C)c2)cc1 (stereo partly drawn) [Compound 241]	42	2.1	0.18 (≈ 0.206 µM)	0.25 (≈ 0.286 µM)
CCCCc1ccc(-c2cnc(C(=O)N[C@@H](CCN)C(=O)N[C@H](C(=O)N[C@@H](C)C(=O)N[C@@H](CCCCN)C(=O)N[C@@H](C)B3OC4C[C@@H]5C[C@@H](C5(C)C)[C@]4(C)O3)[C@@H](C)O)nc2)cc1 (stereo partly drawn) [Compound 242]	54	21	11 (≈ 12.8 µM)	1.4 (≈ 1.62 µM)
CCCCc1ccc(-c2ccc(CC(=O)N[C@@H](CCN)C(=O)N[C@H](C(=O)N[C@@H](C)C(=O)N[C@@H](CCCCN)C(=O)N[C@@H](C)B3OC4C[C@@H]5C[C@@H](C5(C)C)[C@]4(C)O3)[C@@H](C)O)cc2)cc1 (stereo partly drawn) [Compound 243]	80	10	2 (≈ 2.29 µM)	0.5 (≈ 0.572 µM)
CCCCN1CCC(c2ccc(C(=O)N[C@@H](CCN)C(=O)N[C@H](C(=O)N[C@@H](C)C(=O)N[C@@H](CCCCN)C(=O)N[C@@H](C)B3O[C@@H]4C[C@@H]5C[C@@H](C5(C)C)[C@]4(C)O3)[C@@H](C)O)cc2)CC1 [Compound 244] (X13-[Dab]TAK-{boroAla((+)-pinanediol)})	1100	350	64 (≈ 73.8 µM)	45 (≈ 51.9 µM)
CCCCCCN1CCC(c2ccc(C(=O)N[C@@H](CCN)C(=O)N[C@H](C(=O)N[C@@H](C)C(=O)N[C@@H](CCCCN)C(=O)N[C@@H](C)B3O[C@@H]4C[C@@H]5C[C@@H](C5(C)C)[C@]4(C)O3)[C@@H](C)O)cc2)CC1 [Compound 246] (X15-[Dab]TAK-{boroAla((+)-pinanediol)})	290	55	64 (≈ 71.5 µM)	23 (≈ 25.7 µM)
CCCCc1ccc(-c2c[nH]c(C(=O)N[C@@H](CCN)C(=O)N[C@H](C(=O)N[C@@H](C)C(=O)N[C@@H](CCCCN)C(=O)N[C@@H](C)B3O[C@@H]4C[C@@H]5C[C@@H](C5(C)C)[C@]4(C)O3)[C@@H](C)O)c2)cc1 [Compound 247] (X4-[Dab]TAK-{boroAla((+)-pinanediol)})	110	17	0.5 (≈ 0.589 µM)	0.5 (≈ 0.589 µM)
CCCCc1ccc(-c2ncc(C(=O)N[C@@H](CCN)C(=O)N[C@H](C(=O)N[C@@H](C)C(=O)N[C@@H](CCCCN)C(=O)N[C@@H](C)B3OC4C[C@@H]5C[C@@H](C5(C)C)[C@]4(C)O3)[C@@H](C)O)s2)cc1 (stereo partly drawn) [Compound 248] (X21-[Dab]TAK-X1)	170	11	0.25 (≈ 0.288 µM)	0.25 (≈ 0.288 µM)
CCCCc1ccc(Nc2ccc(C(=O)N[C@@H](CCN)C(=O)N[C@H](C(=O)N[C@@H](C)C(=O)N[C@@H](CCCCN)C(=O)N[C@@H](C)B3OC4C[C@@H]5C[C@@H](C5(C)C)[C@]4(C)O3)[C@@H](C)O)cc2)cc1 (stereo partly drawn) [Compound 249]	160	17	1 (≈ 1.14 µM)	0.35 (≈ 0.4 µM)
CCCCc1ccc(NCc2ccc(C(=O)N[C@@H](CCN)C(=O)N[C@H](C(=O)N[C@@H](C)C(=O)N[C@@H](CCCCN)C(=O)N[C@@H](C)B3OC4C[C@@H]5C[C@@H](C5(C)C)[C@]4(C)O3)[C@@H](C)O)cc2)cc1 (stereo partly drawn) [Compound 250] ({X14-4Amb}-[Dab]TAK-X1)	110	8.4	0.71 (≈ 0.799 µM)	0.35 (≈ 0.394 µM)
CCCCc1ccc(-c2ccc(C(=O)NCCC(=O)N[C@@H](CCCCN)C(=O)N[C@H](C(=O)N[C@@H](C)C(=O)N[C@@H](CC(N)=O)C(=O)NC(C)C(=O)C(=O)NC)[C@@H](C)O)cc2)cc1 (stereo partly drawn) [Compound 252] ({Biphenylcarbonyl(4'-Bu)-βAla}-KTAN[ξ3Amino2oxobutanoyl]-NHMe)	8.7	3000	>64	5 (≈ 5.87 µM)
CCCCc1ccc(-c2ccc(C(=O)NC(CCCCN)C(=O)N[C@@H](CCCCN)C(=O)N[C@@H](C)C(=O)N[C@@H](CC(C)C)C(=O)N[C@@H](C)C(=O)C(N)=O)cc2)cc1 (stereo partly drawn) [Compound 253] ({Biphenylcarbonyl(4'-Bu)}-[ξK]KAL-X8)	2100	4800	11 (≈ 13.9 µM)	8 (≈ 10.1 µM)
CCCCc1ccc(-c2ccc(C(=O)N[C@@H](CCCCN)C(=O)N[C@@H](CCCCN)C(=O)N[C@@H](C)C(=O)N[C@@H](CC(C)C)C(=O)N[C@H](C)C(=O)C(N)=O)cc2)cc1 [Compound 254] ({Biphenylcarbonyl(4'-Bu)}-KKAL-X6)	660	1200	11 (≈ 13.9 µM)	8 (≈ 10.1 µM)
CCCCc1ccc(-c2ccc(C(=O)N[C@@H](CN)C(=O)N[C@@H](CCC(=O)N[C@H](CC(=O)O)C(=O)O)C(=O)N[C@@H](C)C(=O)N[C@@H](CCCCN)C(=O)N[C@@H](C)B3OC4C[C@@H]5C[C@@H](C5(C)C)[C@]4(C)O3)cc2)cc1 (stereo partly drawn) [Compound 259] ({Biphenylcarbonyl(4'-Bu)}-[Dap]E(dD)AK-X1)	32	2.6	4 (≈ 4.04 µM)	11 (≈ 11.1 µM)
